Results reported in patent US8877741B2, “Pyrrolidine derivatives, pharmaceutical compositions and uses thereof” (Boehringer Ingelheim International GmbH, priority 2013, dated 2014).

These compounds were tested against human ACC2 (Homo sapiens (Human), UniProt O00763) (assay: ACC2 assay, spectrophotometric 384 well assay (NADH-linked kinetic method)). Conditions: human ACC2 construct lacking the 128 N-terminal amino acids; coupled lactate dehydrogenase/pyruvate kinase reaction, 340 nm, 25° C.
Assay type: biochemical
How it was run: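 ADP formation was monitored as NADH consumption at 340 nm for 15 min at 25 °C, using baculovirus-expressed human ACC2 missing its first 128 amino acids, with 500 μM ATP and 2000 μM each of acetyl-CoA and NADH (final). IC50 was fitted by non-linear regression on low-control-subtracted slopes.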

Sequence of human ACC2 (O00763 129-2458): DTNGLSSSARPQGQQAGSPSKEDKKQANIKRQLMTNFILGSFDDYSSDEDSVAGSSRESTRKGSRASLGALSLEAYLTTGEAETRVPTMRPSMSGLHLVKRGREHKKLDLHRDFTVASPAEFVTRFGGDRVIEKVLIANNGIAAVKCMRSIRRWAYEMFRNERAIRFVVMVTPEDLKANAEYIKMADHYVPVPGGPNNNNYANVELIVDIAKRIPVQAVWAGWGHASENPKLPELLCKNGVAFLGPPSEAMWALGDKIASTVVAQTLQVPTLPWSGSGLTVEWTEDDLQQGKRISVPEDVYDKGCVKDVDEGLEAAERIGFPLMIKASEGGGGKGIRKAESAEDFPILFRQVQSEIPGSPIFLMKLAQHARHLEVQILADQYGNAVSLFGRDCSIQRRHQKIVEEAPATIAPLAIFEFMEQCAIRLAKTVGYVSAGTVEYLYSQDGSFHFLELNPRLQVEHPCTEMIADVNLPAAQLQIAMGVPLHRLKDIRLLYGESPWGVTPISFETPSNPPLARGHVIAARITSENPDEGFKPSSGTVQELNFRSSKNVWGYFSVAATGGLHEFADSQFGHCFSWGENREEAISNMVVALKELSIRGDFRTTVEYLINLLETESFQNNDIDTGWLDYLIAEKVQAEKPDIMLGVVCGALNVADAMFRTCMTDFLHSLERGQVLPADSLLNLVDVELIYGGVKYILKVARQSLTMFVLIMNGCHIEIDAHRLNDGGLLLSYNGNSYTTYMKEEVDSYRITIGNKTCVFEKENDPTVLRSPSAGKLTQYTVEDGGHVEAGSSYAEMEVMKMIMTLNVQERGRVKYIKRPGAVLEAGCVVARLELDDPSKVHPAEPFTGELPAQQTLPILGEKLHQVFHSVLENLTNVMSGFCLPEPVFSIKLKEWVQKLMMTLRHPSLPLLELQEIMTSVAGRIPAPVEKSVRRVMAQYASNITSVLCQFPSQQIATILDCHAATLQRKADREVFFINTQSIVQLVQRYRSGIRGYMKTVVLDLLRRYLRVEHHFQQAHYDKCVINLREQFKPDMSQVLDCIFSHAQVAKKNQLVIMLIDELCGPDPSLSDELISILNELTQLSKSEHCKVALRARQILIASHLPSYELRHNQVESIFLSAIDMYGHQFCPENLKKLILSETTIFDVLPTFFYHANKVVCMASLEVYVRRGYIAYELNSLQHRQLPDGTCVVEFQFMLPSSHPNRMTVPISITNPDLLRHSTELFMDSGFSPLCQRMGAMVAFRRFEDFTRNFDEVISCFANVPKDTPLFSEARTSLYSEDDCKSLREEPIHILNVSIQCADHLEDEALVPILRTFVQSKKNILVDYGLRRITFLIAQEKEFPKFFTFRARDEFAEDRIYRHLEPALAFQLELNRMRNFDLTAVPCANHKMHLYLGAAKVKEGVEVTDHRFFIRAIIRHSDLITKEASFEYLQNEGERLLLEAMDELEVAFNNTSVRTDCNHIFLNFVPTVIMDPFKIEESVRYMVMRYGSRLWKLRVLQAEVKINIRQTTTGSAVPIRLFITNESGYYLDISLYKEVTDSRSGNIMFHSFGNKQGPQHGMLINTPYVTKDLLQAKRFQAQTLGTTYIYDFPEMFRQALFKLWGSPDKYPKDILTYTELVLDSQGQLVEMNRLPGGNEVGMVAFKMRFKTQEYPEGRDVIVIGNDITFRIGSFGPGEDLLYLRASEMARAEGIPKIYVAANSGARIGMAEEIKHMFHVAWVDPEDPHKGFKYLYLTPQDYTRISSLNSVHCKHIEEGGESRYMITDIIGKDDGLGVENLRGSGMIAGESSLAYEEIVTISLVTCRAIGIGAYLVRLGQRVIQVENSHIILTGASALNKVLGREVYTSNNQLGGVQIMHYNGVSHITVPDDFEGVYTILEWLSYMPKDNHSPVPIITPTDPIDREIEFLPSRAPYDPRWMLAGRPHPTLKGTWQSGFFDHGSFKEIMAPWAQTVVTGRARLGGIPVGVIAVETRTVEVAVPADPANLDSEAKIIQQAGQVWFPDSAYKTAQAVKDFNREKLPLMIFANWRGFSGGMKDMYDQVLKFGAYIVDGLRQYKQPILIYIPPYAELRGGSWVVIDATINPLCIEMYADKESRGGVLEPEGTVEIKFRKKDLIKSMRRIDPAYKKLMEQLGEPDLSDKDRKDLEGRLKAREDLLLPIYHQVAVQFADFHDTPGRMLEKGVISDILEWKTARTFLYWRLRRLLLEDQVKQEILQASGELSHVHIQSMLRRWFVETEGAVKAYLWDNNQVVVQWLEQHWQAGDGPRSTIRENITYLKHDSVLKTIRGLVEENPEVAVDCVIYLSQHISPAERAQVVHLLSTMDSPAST

SMILES | IC50 [nM]
CSc1ccc(N2CCC(Oc3ccc([C@H](C)NC(C)=O)cc3)C2)nc1 (some centres unmarked) [Example 1.69] | 387
CC(=O)N[C@@H](C)c1ccc(O[C@@H]2CCN(c3ccnc(OCC4CC(F)(F)C4)c3)C2)cc1 [Example 9.61] | 65
CCCNc1nccc(N2CC[C@@H](Oc3ccc([C@H](C)NC(C)=O)cc3)C2)c1F [Example 1.107] | 52
COc1c(N2CC[C@@H](Oc3ccc([C@H](C)NC(C)=O)cc3)C2)ccnc1OCC(F)F [Example 14.1, N—((S)-1-(4-((R)-1-(2-(2,2-Difluoroethoxy)-3-methoxypyridin-4-yl)pyrrolidin-3-yloxy)phenyl)ethyl)acetamide] | 58
CC(=O)N[C@@H](C)c1ccc(OC2CCN(c3cc(OCC4CC4)ncc3F)C2)cc1 (some centres unmarked) [Example 1.73] | 59
C[C@H](NC(=O)c1cnn(C)c1)c1ccc(OC2CCN(c3ccnc(OCC(F)F)c3)C2)cc1 (some centres unmarked) [Example 2.102] | 136
CC(=O)N[C@@H](C)c1ccc(O[C@@H]2CCN(c3ccnc(OCC(F)F)c3Cl)C2)cc1 [Example 9.72] | 79
C[C@H](NC(=O)c1cnn(C)c1)c1ccc(OC2CCN(c3ccnc(OCC4CC4)c3)C2)cc1 (some centres unmarked) [Example 2.77] | 69
COc1cnc(N2CC[C@@H](Oc3ccc([C@H](C)NC(C)=O)cc3)C2)c(Cl)c1 [Example 8.10] | 693
C[C@H](NC(=O)N(C)C)c1ccc(OC2CCN(c3ccnc(OCC(F)F)c3)C2)cc1 (some centres unmarked) [Example 3.17] | 138
COC(=O)N[C@@H](C)c1ccc(OC2CCN(c3ccnc(OCC4CC4)c3)C2)cc1 (some centres unmarked) [Example 4.4] | 70
Cc1cc(CC(=O)N[C@@H](C)c2ccc(OC3CCN(c4ccnc(OCC(F)F)c4)C3)cc2)on1 (some centres unmarked) [Example 2.100] | 624
CC(=O)N[C@@H](C)c1ccc(O[C@@H]2CCN(c3ccnc(OC4CCCC4)c3F)C2)cc1 [Example 9.84] | 45
CC(=O)N[C@@H](C)c1ccc(O[C@@H]2CCN(c3cccc(N4CCCC4)n3)C2)cc1 [Example 10.3] | 153
C[C@H](NC(=O)N(C)C)c1ccc(OC2CCN(c3ncc(OCC4CC4(F)F)cc3F)C2)cc1 (some centres unmarked) [Example 1.55] | 154
CC(=O)N[C@@H](C)c1ccc(O[C@@H]2CCN(c3ccnc(N4CCC4)c3F)C2)cc1 [Example 1.101] | 92
CC(=O)N[C@@H](C)c1ccc(O[C@@H]2CCN(c3cc(NCC4CC4)ncc3F)C2)cc1 [Example 10.26] | 755
CC(=O)N[C@@H](C)c1ccc(O[C@@H]2CCN(c3ccnc(OCC4CC4)c3F)C2)cc1 [Example 9.51] | 42
CC(=O)N[C@@H](C)c1ccc(O[C@@H]2CCN(c3ccnc(OCC(C)(C)C)c3)C2)cc1 [Example 9.29] | 30
CC(=O)N[C@@H](C)c1ccc(O[C@@H]2CCN(c3ccnc(OC4CC=CC4)c3)C2)cc1 [Example 9.11] | 68
CC(=O)N[C@@H](C)c1ccc(O[C@@H]2CCN(c3ccc(OCC4CC(F)(F)C4)cn3)C2)cc1 [Example 1.123] | 228
Cc1nnsc1C(=O)N[C@@H](C)c1ccc(OC2CCN(c3cccc(C(F)(F)F)n3)C2)cc1 (some centres unmarked) [Example 2.53] | 314
C[C@H](NC(=O)C(C)(C)C)c1ccc(O[C@@H]2CCN(c3cccc(C(F)(F)F)n3)C2)cc1 [Example 5.1, N—((S)-1-(4-((R)-1-(6-(Trifluoromethyl)pyridin-2-yl)pyrrolidin-3-yloxy)phenyl)ethyl) pivalamide] | 649

SMILES | IC50 [nM]
CC(=O)N[C@@H](C)c1ccc(O[C@@H]2CCN(c3ccc(Cl)c(C(F)(F)F)n3)C2)cc1 [Example 8.8] | 265
CC(=O)N[C@@H](C)c1ccc(O[C@@H]2CCN(c3ccnc(NCC4(O)CCC4)c3F)C2)cc1 [Example 10.50] | 53
CC(C#N)C(=O)N[C@@H](C)c1ccc(OC2CCN(c3ccnc(OCC(F)F)c3)C2)cc1 (some centres unmarked) [Example 2.104] | 658
CC(=O)N[C@@H](C)c1ccc(OC2CCN(c3cc(OCC4CC4)ncc3C)C2)cc1 (some centres unmarked) [Example 1.25] | 228
C[C@H](NC(=O)c1cncs1)c1ccc(O[C@@H]2CCN(c3ccc(OCCCF)cn3)C2)cc1 [Example 1.82] | 110
CC(=O)N[C@@H](C)c1ccc(O[C@@H]2CCN(c3cccc(N4CCOCC4)n3)C2)cc1 [Example 10.13] | 498
CCOc1cnc(N2CCC(Oc3ccc([C@H](C)NC(C)=O)cc3)C2)c(C)c1 (some centres unmarked) [Example 1.52] | 474
CC(=O)N[C@@H](C)c1ccc(O[C@@H]2CCN(c3cccc(N(C)C4CCC4)n3)C2)cc1 [Example 1.134] | 102
CC(=O)N[C@@H](C)c1ccc(O[C@@H]2CCN(c3ccnc(C4CC4)c3F)C2)cc1 [Example 15, N—((S)-1-(4-((R)-1-(2-cyclopropyl-fluoropyridin-4-yl)pyrrolidin-3-yloxy)phenyl)-ethyl)-acetamide] | 245
Cc1oncc1C(=O)N[C@@H](C)c1ccc(OC2CCN(c3ccnc(OC(C)C)c3)C2)cc1 (some centres unmarked) [Example 2.58] | 69
COC(=O)N[C@@H](C)c1ccc(O[C@@H]2CCN(c3ccc(OC[C@H]4CC4(F)F)cn3)C2)cc1 [Example 4.1, Methyl (S)-1-(4-((R)-1-(5-(((R)-2,2-difluorocyclopropyl)methoxy)pyridin-2-yl)pyrrolidin-3-yloxy)phenyl)ethylcarbamate] | 39
Cc1cc(CC(=O)N[C@@H](C)c2ccc(OC3CCN(c4ccnc(OCC5CC5)c4)C3)cc2)on1 (some centres unmarked) [Example 2.87] | 270
CCCN(C)c1nccc(N2CC[C@@H](Oc3ccc([C@H](C)NC(C)=O)cc3)C2)c1OC [Example 1.129] | 210
CC(=O)N[C@@H](C)c1ccc(O[C@@H]2CCN(c3ccnc(N4CCOCC4)c3F)C2)cc1 [Example 10.15] | 150
CC(=O)N[C@@H](C)c1ccc(O[C@@H]2CCN(c3nccc(N(C)C)c3F)C2)cc1 [Example 1.98] | 967
CCNC(=O)N[C@@H](C)c1ccc(OC2CCN(c3ccnc(OCC(F)F)c3)C2)cc1 (some centres unmarked) [Example 3.16] | 313
CCc1cccc(N2CCC(Oc3ccc([C@H](C)NC(C)=O)cc3)C2)n1 (some centres unmarked) [Example 1.60] | 202
CCCN(C)c1cccc(N2CC[C@@H](Oc3ccc([C@H](C)NC(C)=O)cc3)C2)n1 [Example 10.5] | 182
CC(=O)N[C@@H](C)c1ccc(O[C@@H]2CCN(c3ccnc(OCC(F)F)c3OCC(F)F)C2)cc1 [Example 9.66] | 615
C[C@H](NC(=O)C1CC1)c1ccc(O[C@@H]2CCN(c3ccnc(OCC4CC4(F)F)c3)C2)cc1 (some centres unmarked) [Example 9.40] | 326
C[C@H](NC(=O)c1ccno1)c1ccc(OC2CCN(c3ccnc(OCC(F)F)c3)C2)cc1 (some centres unmarked) [Example 2.107] | 389
CC(=O)N[C@@H](C)c1ccc(O[C@@H]2CCN(c3ccnc(OC4CCCC4)c3)C2)cc1 [Example 9.28] | 40
COc1c(N2CC[C@@H](Oc3ccc([C@H](C)NC(C)=O)cc3)C2)ccnc1OCC(C)(C)O [Example 1.151] | 504

SMILES | IC50 [nM]
Cc1[nH]ncc1C(=O)N[C@@H](C)c1ccc(OC2CCN(c3ccnc(OCC(F)F)c3)C2)cc1 (some centres unmarked) [Example 2.98] | 282
C[C@H](NC(=O)C1CC1)c1ccc(O[C@@H]2CCN(c3ccnc(OCC4CC4)c3)C2)cc1 [Example 9.39] | 149
C[C@H](NC(=O)c1cn[nH]c1)c1ccc(OC2CCN(c3ccc(OC[C@H]4CC4(F)F)cn3)C2)cc1 (some centres unmarked) [Example 2.93] | 40
CCCN(C)c1nc(N2CC[C@@H](Oc3ccc([C@H](C)NC(C)=O)cc3)C2)c(F)cc1F [Example 10.7] | 505
CC(=O)N[C@@H](C)c1ccc(O[C@@H]2CCN(c3cccc(N4CCOC(C)(C)C4)n3)C2)cc1 [Example 10.38] | 369
CC(=O)N[C@@H](C)c1ccc(O[C@@H]2CCN(c3cccc(N4CCC(C)(C)C4)n3)C2)cc1 [Example 10.48] | 256
COC(C)(C)COc1nccc(N2CC[C@@H](Oc3ccc([C@H](C)NC(C)=O)cc3)C2)c1F [Example 9.87] | 280
CC(=O)N[C@@H](C)c1ccc(O[C@@H]2CCN(c3ccnc(OCC4CC4)c3C)C2)cc1 [Example 9.57] | 55
COC(=O)N[C@@H](C)c1ccc(OC2CCN(c3cccc(C(F)(F)F)n3)C2)cc1 (some centres unmarked) [Example 4.2] | 139
CSc1ccc(N2CCC(Oc3ccc([C@H](C)NC(C)=O)cc3)C2)cn1 (some centres unmarked) [Example 1.83] | 2990
CCN(C)C(=O)N[C@@H](C)c1ccc(OC2CCN(c3ccnc(OCC4CC4)c3)C2)cc1 (some centres unmarked) [Example 3.6] | 110
CC(=O)N[C@@H](C)c1ccc(OC2CCN(c3cc(OCC(F)F)ncc3C)C2)cc1 (some centres unmarked) [Example 1.92] | 524
CCCOc1ccc(N2CC[C@@H](Oc3ccc([C@H](C)NC(=O)c4sc(NC(C)=O)nc4C)cc3)C2)cn1 [Example 1.46] | 149
C[C@H](NC(=O)C1CC1)c1ccc(O[C@@H]2CCN(c3ccnc(OC4CCC4)c3)C2)cc1 [Example 9.41] | 95
CC(=O)N[C@@H](C)c1ccc(O[C@@H]2CCN(c3cccc(N(C)C4CCOCC4)n3)C2)cc1 [Example 10.39] | 360
CC(=O)N[C@@H](C)c1ccc(O[C@@H]2CCN(c3ccc(OC[C@H]4CC4(F)F)cn3)C2)cc1 [Example 1.118] | 39
CC(=O)N[C@@H](C)c1ccc(OC2CCN(c3ncc(OCC(F)(F)F)cc3F)C2)cc1 (some centres unmarked) [Example 1.33] | 504
CC(=O)N[C@@H](C)c1ccc(O[C@@H]2CCN(c3nccc(N4CCCC4)c3F)C2)cc1 [Example 1.99] | 201
COC(=O)N[C@@H](C)c1ccc(OC2CCN(c3ccnc(OCC4CC4(F)F)c3F)C2)cc1 (some centres unmarked) [Example 4.6] | 68
CCCOc1ccc(N2CC[C@@H](Oc3ccc([C@H](C)NC(C)=O)cc3)C2)c(OC)n1 [Example 1.130] | 233
CC(C)Oc1cc(N2CCC(Oc3ccc([C@H](C)NC(=O)C4(C#N)CC4)cc3)C2)ccn1 (some centres unmarked) [Example 2.27] | 571
CCC(=O)Nc1nc(C)c(C(=O)N[C@@H](C)c2ccc(O[C@@H]3CCN(c4ccnc(NCC(F)F)c4F)C3)cc2)s1 [Example 1.141] | 421
